Experimental data from US20090318424A1, “NOVEL COMPOUNDS” (priority 2006, published 2009).
Entries after “also recorded” stand apart in the source; their conditions may differ. Values belong to the compound of their own block, whether it stands above or below them.

Experiments:
[1] = system: influx of neutrophils to the lung in LPS-challenged rats; test: Rat LPS neutrophilia model; type: in vivo; conditions: LPS aerosol 100 ug/ml 15 min, lavage 4 hours later; in at least one of the range of conditions tested
Experimental: The effect of compounds on the influx of neutrophils to the lung in LPS-challenged rats is evaluated as follows. The test compound is suspended in one of the following solutions: 0.5% tween 80/PBS, 0.5% tween 80/saline, 10% EtOH/saline (with pH adjusted to 2.0, or 8.0 with HCl, or unadjusted), Saline @ pH 2.0, 6.5 or 8.0, 0.5% Tragacanth, 1% DMSO/20% Encapsin/Saline, or acidified 5% Tragacanth. The suspension process may be aided by the use of a glass homogenizer. For intratracheal administration, the animals are anesthetized with inhaled isoflurane and placed in a supine position, the trachea is intubated with a steel gavage needle (1.5 inch, 22 gauge, small ball) or a Penn-Century Microsprayer Aerosolizer (model IA-IB) and 200 ul of dosing solution is delivered. The animals are visually monitored during the recovery process, which typically occurs within two minutes.
Rats treated with compound or vehicle (15 min-24 hours pretreatment) are exposed to an LPS aerosol (100 ug/ml) for 15 min. Four hours later the rats are euthanized with pentobarbital (100 mg/kg, i.p.) and the airways are lavaged with 5 washes of 5 ml of phosphate buffered saline. The harvested cells are stained (Diffquick) and counted to determine total and differential cell data. In a typical study, macrophages represent 40-70% of the total cells, and polymorphonuclear cells 30-60% of the total cells. Inhibition of neutrophil levels relative to no compound controls is calculated based on the differential counts.
The assay has varying conditions, such as concentration, pretreat time, form of the compound (crystalline, amorphous, salts, micronised), and a wet or dry application of the compound. The data is obtained as % inhibition using a particular concentration and pretreat time.

[2] = system: TGF-β-induced increases in fibronectin and thrombospondin; conditions: cited from earlier work
[3] = system: circulating levels of TNFα; conditions: mice; cited from earlier work
[4] = patients suffering from Psoriasis; seen as early as 4 weeks, persisted for 12 weeks; cited from earlier work
[5] = patients with sleep apnea; cited from earlier work

Compound: CNC(=O)c1ccc(C)c(-c2nc(NCCCN(C)C)nc3c2CNC(=O)N3c2c(F)cccc2F)c1 [Example 166, 3-(8-(2,6-difluorophenyl)-2-{[3-(dimethylamino)propyl]amino}-7-oxo-5,6,7,8-tetrahydropyrimido[4,5-d]pyrimidin-4-yl)-N,4-dimethylbenzamide]
inhibition of neutrophilia [1]: statistically nonsignificant inhibition
melting point: 164 to 167 °C (dec.)

Compound: Cc1ccc(C(=O)Nc2ccc(C)c(-c3nc(N4CCC(N)CC4)nc4c3CNC(=O)N4c3c(F)cccc3F)c2)cc1F [Example 24, N-{3-[2-(4-amino-1-piperidinyl)-8-(2,6-difluorophenyl)-7-oxo-5,6,7,8-tetrahydropyrimido[4,5-d]pyrimidin-4-yl]-4-methylphenyl}-3-fluoro-4-methylbenzamide]
inhibition of neutrophilia [1]: statistically nonsignificant inhibition
melting point: 240 °C

Compound: Cc1ccc(C(=O)Nc2ccc(C)c(-c3nc(OC(C)C)nc4c3CNC(=O)N4c3c(F)cccc3F)c2)cc1F [Example 26, N-(3-{8-(2,6-difluorophenyl)-2-[(1-methylethyl)oxy]-7-oxo-5,6,7,8-tetrahydropyrimido[4,5-d]pyrimidin-4-yl}-4-methylphenyl)-3-fluoro-4-methylbenzamide]
inhibition of neutrophilia [1]: inactive
melting point: 253.5 to 255.4 °C

Compound: COc1nccc(-c2c(-c3ccc(F)cc3)ncn2C2CCNCC2)n1 [SB-242235]
TGF-β-induced increases in fibronectin and thrombospondin [2]: inhibited

Compound: CNC(=O)c1ccc(C)c(-c2nc(N3CCC(N4CCCC4)CC3)nc3c2CNC(=O)N3c2c(F)cccc2F)c1 [Example 175, 3-{8-(2,6-difluorophenyl)-7-oxo-2-[4-(1-pyrrolidinyl)-1-piperidinyl]-5,6,7,8-tetrahydropyrimido[4,5-d]pyrimidin-4-yl}-N,4-dimethylbenzamide]
inhibition of neutrophilia [1]: inactive
melting point: 189 to 194 °C (dec.)

Compound: CC(NC(C)(C)C)C(=O)c1cccc(Cl)c1 (centres unmarked) [bupropion]
circulating levels of TNFα [3]: reduce circulating levels of TNFα

Compound: Cc1ccc(NC(=O)c2ccsc2)cc1-c1nc(N2CCC(N)CC2)nc2c1CNC(=O)N2c1c(F)cccc1F [Example 11, N-{3-[2-(4-amino-1-piperidinyl)-8-(2,6-difluorophenyl)-7-oxo-5,6,7,8-tetrahydropyrimido[4,5-d]pyrimidin-4-yl]-4-methylphenyl}-3-thiophenecarboxamide]
inhibition of neutrophilia [1]: statistically significant inhibition
melting point: 250 to 261 °C (dec.)

Compound: CNC(=O)c1ccc(C)c(-c2nc(N(C)CCCN(C)C)nc3c2CNC(=O)N3c2c(F)cccc2F)c1 [Example 174, 3-{8-(2,6-difluorophenyl)-2-[[3-(dimethylamino)propyl](methyl)amino]-7-oxo-5,6,7,8-tetrahydropyrimido[4,5-d]pyrimidin-4-yl}-N,4-dimethylbenzamide]
inhibition of neutrophilia [1]: inactive
melting point: 163 to 165 °C

Compound: Cc1ccc(C(=O)NCc2ccccc2)cc1-c1nc(N(C)CCCN(C)C)nc2c1CNC(=O)N2c1c(F)cccc1F [Example 17, 3-{8-(2,6-Difluorophenyl)-2-[[3-(dimethylamino)propyl](methyl)amino]-7-oxo-5,6,7,8-tetrahydropyrimido[4,5-d]pyrimidin-4-yl}-4-methyl-N-(phenylmethyl)benzamide]
inhibition of neutrophilia [1]: statistically nonsignificant inhibition
melting point: 124 to 127 °C

Compound: Cc1ccc(C(=O)NCc2ccccc2)cc1-c1nc(NCCCN(C)C)nc2c1CNC(=O)N2c1c(F)cccc1F [Example 151, 3-(8-(2,6-difluorophenyl)-2-{[3-(dimethylamino)propyl]amino}-7-oxo-5,6,7,8-tetrahydropyrimido[4,5-d]pyrimidin-4-yl)-4-methyl-N-(phenylmethyl)benzamide]
inhibition of neutrophilia [1]: statistically nonsignificant inhibition
melting point: 141 to 144 °C

Compound: Cc1ccc(C(=O)NCc2ccccc2)cc1-c1nc(N2CCN(C)CC2)nc2c1CNC(=O)N2c1c(F)cccc1F [Example 148, 3-[8-(2,6-difluorophenyl)-2-(4-methyl-1-piperazinyl)-7-oxo-5,6,7,8-tetrahydropyrimido[4,5-d]pyrimidin-4-yl]-4-methyl-N-(phenylmethyl)benzamide]
inhibition of neutrophilia [1]: statistically nonsignificant inhibition
melting point: 164 to 168 °C

Compound: CCN(CC)CCCNc1nc(-c2cc(C(=O)NC)ccc2C)c2c(n1)N(c1c(F)cccc1F)C(=O)NC2 [Example 172, 3-[2-{[3-(diethylamino)propyl]amino}-8-(2,6-difluorophenyl)-7-oxo-5,6,7,8-tetrahydropyrimido[4,5-d]pyrimidin-4-yl]-N,4-dimethylbenzamide]
inhibition of neutrophilia [1]: statistically nonsignificant inhibition
melting point: 133 to 136 °C

Compound: Cc1ccc(C(=O)Nc2ccc(C)c(-c3nc(N(C)C)nc4c3CNC(=O)N4c3c(F)cccc3F)c2)cc1F [Example 28, N-{3-[8-(2,6-difluorophenyl)-2-(dimethylamino)-7-oxo-5,6,7,8-tetrahydropyrimido[4,5-d]pyrimidin-4-yl]-4-methylphenyl}-3-fluoro-4-methylbenzamide]
inhibition of neutrophilia [1]: statistically nonsignificant inhibition
melting point: 257.8 to 264.3 °C

Compound: Cc1ccc(C(=O)Nc2ccc(C)c(-c3nc(NC4CC(C)(C)NC(C)(C)C4)nc4c3CNC(=O)N4c3c(F)cccc3F)c2)cc1F [23(e), N-(3-{8-(2,6-difluorophenyl)-7-oxo-2-[(2,2,6,6-tetramethyl-4-piperidinyl)amino]-5,6,7,8-tetrahydropyrimido[4,5-d]pyrimidin-4-yl}-4-methylphenyl)-3-fluoro-4-methylbenzamide]
inhibition of neutrophilia [1]: statistically nonsignificant inhibition
melting point: 220 °C (dec.)

melting point: 157 to 161 °C
Compound: CNCCNc1nc(-c2cc(C(=O)NCc3ccccc3)ccc2C)c2c(n1)N(c1c(F)cccc1F)C(=O)NC2 [19(b), 3-(8-(2,6-Difluorophenyl)-2-{[2-(methylamino)ethyl]amino}-7-oxo-5,6,7,8-tetrahydropyrimido[4,5-d]pyrimidin-4-yl)-4-methyl-N-(phenylmethyl)benzamide]

melting point: 166 to 170 °C (dec.)
Compound: CNC(=O)c1ccc(C)c(-c2nc(NCCCNC(C)(C)C)nc3c2CNC(=O)N3c2c(F)cccc2F)c1 [Example 170, 3-[8-(2,6-difluorophenyl)-2-({3-[(1,1-dimethylethyl)amino]propyl}amino)-7-oxo-5,6,7,8-tetrahydropyrimido[4,5-d]pyrimidin-4-yl]-N,4-dimethylbenzamide]

melting point: 172 to 176 °C (dec.)
Compound: Cc1ccc(C(=O)NCc2ccccc2)cc1-c1nc(NC2CCNCC2)nc2c1CNC(=O)N2c1c(F)cccc1F [21(b), 3-[8-(2,6-Difluorophenyl)-7-oxo-2-(4-piperidinylamino)-5,6,7,8-tetrahydropyrimido[4,5-d]pyrimidin-4-yl]-4-methyl-N-(phenylmethyl)benzamide]

melting point: 138 to 142 °C
Compound: Cc1ccc(C(=O)N(C)C)cc1-c1nc(NCCN(C)C)nc2c1CNC(=O)N2c1c(F)cccc1F [Example 152, 3-(8-(2,6-difluorophenyl)-2-{[2-(dimethylamino)ethyl]amino}-7-oxo-5,6,7,8-tetrahydropyrimido[4,5-d]pyrimidin-4-yl)-NN,4-trimethylbenzamide]

melting point: 201 to 205 °C (dec.)
Compound: CCN(CC)C(=O)c1ccc(C)c(-c2nc(N3CCN(C)CC3)nc3c2CNC(=O)N3c2c(F)cccc2F)c1 [Example 162, 3-[8-(2,6-difluorophenyl)-2-(4-methyl-1-piperazinyl)-7-oxo-5,6,7,8-tetrahydropyrimido[4,5-d]pyrimidin-4-yl]-N,N-diethyl-4-methylbenzamide]

Compound: CNC(=O)c1ccc(C)c(-c2nc(N3CCC(N4CCCCC4)CC3)nc3c2CNC(=O)N3c2c(F)cccc2F)c1 [Example 176, 3-[2-(1,4′-bipiperidin-1′-yl)-8-(2,6-difluorophenyl)-7-oxo-5,6,7,8-tetrahydropyrimido[4,5-d]pyrimidin-4-yl]-N,4-dimethylbenzamide]
inhibition of neutrophilia [1]: statistically nonsignificant inhibition
melting point: 179 to 184 °C (dec.)

Compound: etanercept
symptoms of depression (HAMD and BDI score) and fatigue [4]: demonstrated efficacy; also recorded: reduce symptoms of depression
sleepiness [5]: decreases in sleepiness
